In one series the target is α-glucosidase. In words: α-glucosidase inhibitory activity (PNPG method). The class given is biochemical. The note with it: mean ± SE; acarbose as positive control. The method, then:
In order to evaluate the insecticidal activities of all the isolated compounds, their toxicities on D. citri Kuwayama were tested.
According to the previously reported method, all the isolated compounds were screened for α-glucosidase inhibitory activity.

For series [1], the system named is Diaphorina citri Kuwayama. In words: Insecticidal activity (toxicity) against the Asian citrus psyllid. Type of series: in vivo. The conditions noted are these: for corrected mortality rate of citrus psyllid: 4th day after the test started, compound concentration higher than 50 mg/L; for LD50: against D. citri, during 6 days after treatment (calculated using observations on day 6), Probit analysis. The method, then: To avoid accidental injury, all the D. citri were carefully collected and cultured. The insecticidal activities of eight compounds were evaluated using methods described in the literature with slightly modified. […] Finally, mortality was calculated every 24 h starting on the second day of the trial.

Structures are written as SMILES.

In turn, `Oc1c(Cl)cc(CCc2c(Cl)cc(Cl)c(O)c2Cl)cc1Cl` [Compound 1, 2,4,6,3′,5′-pentachloro-3,4′-dihydroxybibenzyl] yielded an IC50 against α-glucosidase of 82.8 ± 4.99 µM.

On to `Oc1c(Cl)cc(CCc2ccc(Cl)c(O)c2Cl)cc1Cl` [Compound 2, 2,4,3′,5′-tetrachloro-3,4′-dihydroxybibenzyl], for which, in series [1], the “corrected mortality rate of citrus psyllid” value (from here on “corrected mortality rate”) was “higher than 50%” and the LD50 is listed as 27.15 mg/L.

In the case of `Oc1cc(CCc2cc(Cl)c(O)c(Cl)c2)c(Cl)cc1Cl` [Compound 3, 4,6,3′,5′-tetrachloro-3,4′-dihydroxybibenzyl], in series [1], the LD50 is listed as 48.50 mg/L. This compound also came in with an IC50 against α-glucosidase of 60.4 ± 1.54 µM.

Consider `Oc1cc(CCc2cc(Cl)c(O)c(Cl)c2)ccc1Cl` [Compound 4, 4,3′,5′-trichloro-3,4′-dihydroxybibenzyl], for which it took 17.9 ± 0.74 µM to reach half-maximal inhibition against α-glucosidase (IC50).

Turning to `COc1cc(CCc2cc(Cl)c(O)c(Cl)c2)ccc1Cl` [Compound 5, 4,3′,5′-trichloro-4′-hydroxyl-3-methoxybibenzyl], in series [1], the “corrected mortality rate” value is on record as “higher than 50%” and the LD50 is given as 17.02 mg/L. Also, the IC50 against α-glucosidase is 62.7 ± 6.87 µM.

With `COc1cc(O)c(CCC(C)(C)O)c(CCc2ccccc2)c1` [Compound 6, 3-hydroxyl-5-methoxy-2-(3′-hydroxyl-3′-methylbutyl)-bibenzyl], in series [1], the “corrected mortality rate” value is “higher than 50%” and the LD50 is 16.20 mg/L. In addition, inhibition against α-glucosidase was half-maximal at 76 ± 12 µM (IC50).

Consider `CC(C)=CCc1c(O)cc(O)cc1CCc1ccccc1` [Compound 7, 3,5-dihydroxyl-2-(3′-methyl-2′-butenyl)-bibenzyl], for which the LD50 in series [1] is 48.64 mg/L. On α-glucosidase, this compound showed an IC50 of 56.7 ± 1.42 µM.

On α-glucosidase, `CC(C)=CCc1ccc(CCc2ccc(O)cc2)cc1O` [Compound 8, 3,4″-dihydroxyl-4-(3′-methyl-2′-butenyl)-bibenzyl] registered a half-inhibitory concentration (IC50) of 65.4 ± 2.04 µM.

As for `O=C1CCC[C@@H]2[C@H]3CCCN4CCC[C@@H](CN12)[C@@H]34` [Matrine, matrine, reference compound], the LD50 in series [1] was 11.86 mg/L.

Values taken from PMC9826768, “New polychlorinated bibenzyls from Rhododendron minutiflorum” (Natural Products and Bioprospecting, 2023).
